Consider 14 compounds from patent US20130023563A1, “AMIDINOANILINE DERIVATIVE” (AJINOMOTO CO., INC., priority 2010, published 2013).

Where a name gives a salt, the structure may show the parent alone. Some results are limits rather than exact numbers.

One data set concerns the target FXa (Homo sapiens, UniProt P00742). Briefly: Measurement of inhibitory activity against activated factor X (chromogenic substrate S-2222). The format is biochemical. Conditions: 0.015 U/ml FXa, 0.2 mM S-2222, absorbance 405 nm; read-out: FXa (pIC50) (converted). As to the method:
Experimental Example 1 Measurement of Inhibitory Activity Against Activated Factor X Activity
(§1) Using a 96-well plate (#3396, Costar), 100 mM Tris-HC1 buffer (130 μL) containing 0.02% Tween 20, 0.1% PEG6000 and 0.2M NaCl was admixed with 0.015 U/ml FXa (10 μL) and a test compound (10 μL) for 10 min and a color developing substrate 0.2 mM S-2222 (50 μL) was added. Using a microplate reader Benchmark Plus (BIO-RAD), the reaction rate was measured from the time course changes at absorbance 405 nm. Using the reaction rate of the control as 100%, the negative logarithmic value of the concentration that can suppress the reaction rate of the control by 50% was taken as the pIC50 value.

Data set [1] has as its target activated factor IIa (thrombin) (Homo sapiens, UniProt P00734). Briefly: Measurement of inhibitory activity against activated factor II (chromogenic substrate S-2238). Format: biochemical. The note with it: 0.125 U/ml thrombin, 0.1 mM S-2238, absorbance 405 nm; read-out: FIIa (pIC50) (converted). How it is done: Experimental Example 2 Measurement of Inhibitory Activity Against Activated Factor II (FIIa, Thrombin)
as §1, with “mM Tris-HCl” for “mM Tris-HC1”, “with 0.125” for “with 0.015”, “U/ml activated factor IIa (thrombin)” for “U/ml FXa”, “substrate 0.1” for “substrate 0.2”, “mM S-2238” for “mM S-2222”

For data set [2], the system named is human plasma. Description: Anti-blood coagulant activity, aPTT method, Sysmex CA-1500 (Experimental Example 3-1). Format: biochemical. Conditions: negative logarithmic value of the concentration that prolongs aPTT of the control 2 times. As to the method:
Experimental Example 3-1 Measurement of Anti-Blood Coagulant Activity
Examples 1, 8, 9, 11, 13, 16-19 and 22 were measured according to the following method.
(§2) An aPTT measurement method using totally automatic blood coagulation time measuring apparatus Sysmex CA-1500 was used. A 10 mg/ml DDVP solution (DDVP standard product, Wako) (4 μL) and a test compound solution (20 μL) were placed in a sample tube (MS-18, Japan Medical Science), human plasma (standard human plasma for blood coagulation test, GCH-100A, Sysmex) (180 μL) was added and the mixture was used as a test sample. The test sample (50 μL) was incubated at 37° C. for 1 min, data fi APTT (rabbit brain-derived cephalin, DADE Behiring) (50 μL) was added, and the mixture was further incubated at 37° C. for 2 min. To the sample solution was added 0.02M calcium chloride (50 μL), and the time until plasma coagulation was automatically measured.
(§3) As the anti-blood coagulant activity, the negative logarithmic value of the concentration that prolongs aPTT of the control 2 times is shown as paPTT2.

Data set [3] is described as follows: Evaluation of stability in plasma. The note with it: human plasma, 37° C., read-out: T½. The format is in vitro ADME. As to the method:
Experimental Example 4 Evaluation of stability in plasma
To human plasma (495 μL) was added 5 μL from a solution of the test compound prepared to 200 μM (final drug solution concentration 2 μM), and the mixture was incubated at 37° C. At 0 min, 1 min, 2 min, 5 min and 10 min from the addition of the drug solution, 50 μL each was sampled, 0.1 mg/ml DDVP-containing acetonitrile (350 μL) was added, and the reaction was discontinued by blending them. After discontinuation of the reaction, a deproteination treatment was performed by a centrifugation operation at 15000 rpm for 5 min. The centrifugation supernatant (350 μL) was dried to solidness, concentrated, dissolved in aqueous solution (100 μL) of 20% acetonitrile and 0.1% formic acid and the mixture was subjected to the measurement by LC/MS/MS.
The half-life (T1/2) was calculated using initial 3rd-4th time points.

Data set [4] can be described thus: Evaluation of stability in liver S9 fraction. Format: in vitro ADME. The note with it: human liver S9 fraction 2 mg/mL, 2 μM, 37° C. As to the method:
Experimental Example 5 Evaluation of Stability in Liver S9 Fraction
Metabolism reaction mixed solution (0.1 mM EDTA-100 mM potassium phosphate buffer (pH 7.4), 2 mg/mL human liver S9 fraction, 0.5 mM oxidized nicotinamide adenine dinucleotide phosphate, 5 mM glucose-6-phosphoric acid, 1 unit/mL glucose-6-phosphate dehydrogenase) was pre-warmed at 37° C. for 5 min. After pre-warming, DMSO solution of the substrate was added such that the concentration of the final drug solution was 2 μM, and the metabolism reaction was started at 37° C. A given amount was sampled at 0 min, 5 min, 10 min and 30 min from the start of the reaction, 0.1 mg/mL dichlorvos-containing acetonitrile was added, and blended to discontinue the reaction. After discontinuation of the reaction, a deproteination treatment was performed by a centrifugation operation at 15000 rpm for 5 min. To the centrifugation supernatant was added 0.3% aqueous formic acid solution, admixed and the mixture was subjected to the measurement by LC/MS/MS. Then, as the residual ratio (%) at 30 min later, the ratio relative to the concentration at 0 min was calculated.

Data set [5] has as its system human plasma. Briefly: Anti-blood coagulant activity, aPTT method, Sysmex Cs-2000i (Experimental Example 3-2). Format: biochemical. The note with it: negative logarithmic value of the concentration that prolongs aPTT of the control 2 times. As to the method:
Experimental Example 3-2 Measurement of Anti-Blood Coagulant Activity
as §2, with “Cs-2000i” for “CA-1500”, “(8” for “(4”, “(40” for “(20”, “(360” for “(180”
as §3

FXa, sequence (P00742 235-488 limits assumed): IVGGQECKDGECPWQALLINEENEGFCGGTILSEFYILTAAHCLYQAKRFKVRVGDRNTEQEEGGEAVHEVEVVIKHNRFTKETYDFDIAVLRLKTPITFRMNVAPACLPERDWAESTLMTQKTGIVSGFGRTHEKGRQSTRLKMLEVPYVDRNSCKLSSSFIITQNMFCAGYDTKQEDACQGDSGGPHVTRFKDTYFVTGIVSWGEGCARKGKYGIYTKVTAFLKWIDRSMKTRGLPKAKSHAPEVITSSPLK
FXa, sequence (P00742 41-179 partner limits assumed): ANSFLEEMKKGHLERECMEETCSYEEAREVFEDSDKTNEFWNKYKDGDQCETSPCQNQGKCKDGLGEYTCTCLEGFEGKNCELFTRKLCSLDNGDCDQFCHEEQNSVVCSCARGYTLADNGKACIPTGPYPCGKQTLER

As to `CC(=N)N1CCC(Oc2ccc(OC(=O)[C@@H]3CCCCN3c3cccc(C(=N)N)c3)cc2)CC1` [compound of Ex. 17, 4-[(1-ethanimidoylpiperidin-4-yl)oxy]phenyl (2S)-1-{3-[amino(imino)methyl]phenyl}piperidine-2-carboxylate 2 trifluoroacetate], the results for the IC50 (on FXa; in data set [1]) were 40.7 nM and 53700 nM, respectively. This compound also displayed a paPTT2 with human plasma [2] of 6.33.
For the compound `N=C(N)c1cccc(N2CCCC[C@@H]2C(=O)Oc2ccc(C(=N)N3CCCC3)cc2)c1` [compound of Ex. 18, 4-[imino(pyrrolidin-1-yl)methyl]phenyl (2R)-1-{3-[amino(imino)methyl]phenyl}piperidine-2-carboxylate 2 trifluoroacetate], the IC50 was 4.57 nM at FXa and 2950 nM in data set [1]. Also, the paPTT2 in the data set on human plasma [2] is reported as 6.64.
Taken in the same sequence, the figures for `N=C(N)c1cccc(N2CCCC[C@H]2C(=O)Oc2ccc(C(=N)N3CCCC3)cc2)c1` [compound of Ex. 16, 4-[imino(pyrrolidin-1-yl)methyl]phenyl (2S)-1-{3-[amino(imino)methyl]phenyl}piperidine-2-carboxylate 2 trifluoroacetate] were 15.1 nM, 70800 nM and 6.85.
Taken in the same sequence, the figures for `N=C(N)c1cccc(N2CCC[C@@H]2C(=O)Oc2ccc(C(=N)N3CCCC3)cc2)c1` [compound of Ex. 9, 4-[imino(pyrrolidin-1-yl)methyl]phenyl 1-{3-[amino(imino)methyl]phenyl}-D-prolinate 2 trifluoroacetate] were 20 nM, 692 nM and 6.69.
Taken in the same sequence, the figures for `CN(CC(=O)Oc1ccc(C(=N)N2CCCC2)cc1)c1cccc(C(=N)N)c1` [compound of Ex. 1, 4-[imino(pyrrolidin-1-yl)methyl]phenyl N-{3-[amino(imino)methyl]phenyl}-N-methylglycinate 2 trifluoroacetate] were 45.7 nM, over 100000 nM and 5.48.
Take `N=C(N)c1cccc(N2CCC[C@@H]2COC(=O)c2ccc(C(=N)N3CCCC3)cc2)c1` [compound of Ex. 23, ((2R)-1-{3-[amino(imino)methyl]phenyl}pyrrolidin-2-yl)methyl 4-[imino(pyrrolidin-1-yl)methyl]benzoate 2 trifluoroacetate]: the half-life at 2 μM in data set [3] is 0.2 min. Moreover, in data set [4], the “residual ratio (%) of liver S9 fraction 30 min later” value is recorded as 76%.
With `C[C@@H](C(=O)Oc1ccc(C(=N)N2CCCC2)cc1)N(C)c1cccc(C(=N)N)c1` [compound of Ex. 4, 4-[imino(pyrrolidin-1-yl)methyl]phenyl N-{3-[amino(imino)methyl]phenyl}-N-methyl-L-alaninate 2 trifluoroacetate], the IC50 on FXa is 13.5 nM; in data set [1], 83200 nM. The compound also gave a paPTT2 in the data set on human plasma [5] of 6.89. In addition, the half-life at 2 μM in data set [3] came out at 4 min. The “residual ratio (%) of liver S9 fraction 30 min later” value in data set [4] was found to be 57%.
Consider `CC(=N)N1CCC(Oc2ccc(C(=O)OC[C@@H]3CCCN3c3cccc(C(=N)N)c3)cc2)CC1` [compound of Ex. 24, ((2S)-1-{3-[amino(imino)methyl]phenyl}pyrrolidin-2-yl)methyl 4-[(1-ethanimidoylpiperidin-4-yl)oxy]benzoate 2 trifluoroacetate], for which the half-life at 2 μM in data set [3] amounted to 0.5 min. Also, the “residual ratio (%) of liver S9 fraction 30 min later” value in data set [4] was 92%.
As for `C[C@H](C(=O)Oc1ccc(C(=N)N2CCCC2)cc1)N(C)c1cccc(C(=N)N)c1` [compound of Ex. 5, 4-[imino(pyrrolidin-1-yl)methyl]phenyl N-{3-[amino(imino)methyl]phenyl}-N-methyl-D-alaninate 2 trifluoroacetate], the IC50 at FXa was 20 nM; in data set [1], 38000 nM. The compound also showed a paPTT2 in the data set with human plasma [5] of 6.26. The half-life at 2 μM in data set [3] was determined as 3.7 min. Moreover, the “residual ratio (%) of liver S9 fraction 30 min later” value in data set [4] worked out at 64%.
In the case of `CCC[C@H](C(=O)Oc1ccc(OC2CCN(C(C)=N)CC2)cc1)N(C)c1cccc(C(=N)N)c1` [compound of Ex. 44, 4-[(1-ethanimidoylpiperidin-4-yl)oxy]phenyl N-{3-[amino(imino)methyl]phenyl}-N-methyl-L-norvalinate 2 trifluoroacetate], the IC50 at FXa was 3.16 nM; in data set [1] it was 1740 nM. The same compound returned a paPTT2 with human plasma [5] of 6.87.
Turning to `CC(=N)N1CCC(Oc2ccc(OC(=O)[C@H]3CCCCN3c3cccc(C(=N)N)c3)cc2)CC1` [compound of Ex. 19, 4-[(1-ethanimidoylpiperidin-4-yl)oxy]phenyl (2R)-1-{(3-[amino(imino)methyl]phenyl}piperidine-2-carboxylate 2 trifluoroacetate], the IC50 on FXa is 7.76 nM; in data set [1], 3390 nM. The compound also showed a paPTT2 in the data set with human plasma [2] of 6.89.
Consider `N=C(N)c1cccc(N2CCC[C@H]2C(=O)Oc2ccc(C(=N)N3CCCC3)cc2)c1` [compound of Ex. 8, 4-[imino(pyrrolidin-1-yl)methyl]phenyl 1-{3-[amino(imino)methyl]phenyl}-L-prolinate 2 trifluoroacetate], for which the IC50 at FXa was 282 nM; in data set [1], 25700 nM. This compound came in with a paPTT2 in the data set with human plasma [2] of 5.66.
In the case of `N=C(N)c1cccc(N2C[C@H](O)C[C@H]2C(=O)Oc2ccc(C(=N)N3CCCC3)cc2)c1` [compound of Ex. 15, 4-[imino(pyrrolidin-1-yl)methyl]phenyl (4R)-1-[(3-[amino(imino)methyl]phenyl]-4-hydroxy-L-prolinate 2 trifluoroacetate], the IC50 is 224 nM on FXa and 28200 nM in data set [1]. The paPTT2 in the data set with human plasma [5] worked out at 5.68.
Taken in the same sequence, the figures for `N=C(N)c1cccc(N2CCCC[C@@H]2C(=O)Oc2ccc(C(=N)N3CCCC3)cc2C(=O)O)c1` [compound of Ex. 52, 2-{[((2R)-1-{3-[amino(imino)methyl]phenyl}piperidin-2-yl)carbonyl]oxy}-5-[imino(pyrrolidin-1-yl)methyl]benzoic acid 2 trifluoroacetate] were 18.2 nM, over 100000 nM and 6.35.
